Measured values: patent publication US20080317692A1, “SUICIDE SUBSTRATES OF TYROSINASE AND USE THEREOF” (SUSTINEO BIOTECHNOLOGY CO., LTD, priority 2007, published 2008)

Tests used:
[1] = test system: mushroom tyrosinase; experiment: Enzymatic assay of tyrosinase (dopachrome formation at 475 nm, L-tyrosine or L-DOPA as substrate); assay type: biochemical; details: 0.05 mM isoflavone; for inhibition of monophenolase activity (dopachrome formation): 0.1 mM L-tyrosine as substrate (FIG. 2A); for lag time of monophenolase activity (L-tyrosine oxidation): 0.1 mM L-tyrosine, tyrosinase 100 units/mL (FIG. 2A)
Protocol: Ten microliters of the test sample (dissolved in DMSO) was mixed with 970 μL of 0.112 mM substrate (L-tyrosine or L-DOPA dissolved in 50 mM phosphate buffer, pH 6.8) at 25° C. for 2 min. […] The increase in absorbance at 475 nm due to the formation of dopachrome was monitored with a spectrophotometer.

[2] = test system: mushroom tyrosinase; experiment: HPLC analysis of the reaction of isoflavone with tyrosinase (substrate behaviour); assay type: biochemical; details: 100 μM isoflavone, tyrosinase 1000 units/mL, 50 mM phosphate buffer pH 6.8 (FIG. 3)
[3] = test system: mushroom tyrosinase; experiment: Partition ratio of suicide substrate (method of Waley, titration of tyrosinase); assay type: biochemical; details: for molecules required to inactivate 1 molecule of the enzyme (1+r): 0.1 μM tyrosinase, preincubated 30 min at 25° C., by extrapolation (FIG. 5); for partition ratio r: from the intercept on the abscissa in FIG. 5, which is 1+r
[4] = target: mushroom tyrosinase; experiment: Michaelis constant and maximal inactivation rate constant (method of Frere et al.); assay type: biochemical; details: for maximal inactivation rate constant ki-max / Ki: 0.03 μM tyrosinase, 2.5 mM L-DOPA as enzyme substrate, 50 to 300 μM suicide substrate (FIG. 6); for Ki: read-out: Michaelis constant KI of the inactivator
Description: The kinetics of inhibition of 7,8,4′-trihydroxyisoflavone and 5,7,8,4′-tetrahydroxyisoflavone were studied by using the method of Frere et al. and by measuring the oxidation of L-DOPA by mushroom tyrosinase in the presence of each of the two suicide substrates. During the assay, the concentration of the tested suicide substrate was much higher than that of the enzyme. When the progress of the inactivation of the enzyme was monitored at high suicide substrate/enzyme ratios, the concentration of suicide substrate ([I]) could be considered as constant throughout the process and a pseudo-first-order rate constant (ki) could be determined by using equation 1, where ki-max and KI represent the maximal inactivation velocity and the Michaelis constant of the inactivator.
In the presence of L-DOPA, the exponential decrease in the rate of oxidation of L-DOPA gave an apparent first-order rate constant kobs, which was computed from plots of ln(vt/v0) against t, where v0 and vt are the rates of increase of absorbance at 475 nm, at zero time and at time t, respectively. Assuming a competitive interaction between the added isoflavone and L-DOPA with the enzyme, the variation of kobs with the concentrations of the isoflavone ([I]) and L-DOPA ([S]) are given by equation 2
where KS and KI are the Michaelis constants for L-DOPA and the isoflavone, respectively. When equation 2 is written as
[I]/kobs=[I]/ki-max+KI/ki-max(1+[S]/KS) (3)
it is clear that a plot of [I]/kobs against [I] will be linear and that ki-max and KI can be found from the intercept and slope.
The Michaelis constants (KI) and maximal inactivation rate constants (ki-max) of suicide substrates were determined according to the method of Frere et al. (17). The inactivation reactions were carried out in the presence of 0.03 μM mushroom tyrosinase, 2.5 mM L-DOPA, and the suicide substrate at concentrations ranging from 50 to 300 μM, and the formation of dopachrome was monitored every second for 2 min with a spectrophotometer. […] Both KI and ki-max could thus be calculated, assuming a competition between the added isoflavone and L-DOPA.

[5] = test system: mushroom tyrosinase; experiment: Irreversible inhibitory activity assay (preincubation with tyrosinase, then L-DOPA); details: for enzyme inactivation after preincubation: 10 μM isoflavone, after 7 min of preincubation (FIG. 4); for type of inhibition: preincubation with 3 or 10 μM isoflavone
Protocol: In irreversible inhibitory activity assays, 20 units of tyrosinase was preincubated with a 3 or 10 μM concentration of the tested isoflavone (dissolved in DMSO) in 1 mL of 50 mM phosphate buffer (pH 6.8) at 25° C. At intervals of 0, 2, 7, 12, and 30 min, 200 μL of the preincubation mixture was mixed with 800 μL of 2.5 mM L-DOPA and incubated at 25° C. for 10 min. The formation of dopachrome in each reaction was monitored with a spectrophotometer. The relative activity was calculated by dividing the absorbance at 475 nm of each reaction by that of the control reaction, in which DMSO replaced the added isoflavone. For recovery experiments, the preincubation mixture incubated for 30 min was either dialyzed twice against 200 mL of phosphate buffer at 4° C. for 1 h with stirring or centrifuged through a Sephadex G-25 spin column (Sigma). Then, the residual tyrosinase activities of the mixtures from the two treatments were assayed as described above.
Then, 800 μL of 2.5 mM L-DOPA was added, and the reaction mixture was incubated at 25° C. for 10 min. For comparison, another set of experiments was conducted by mixing immediately the tested compound, tyrosinase, and L-DOPA in 1 mL of phosphate buffer and incubated at 25° C. for 10 min. The formation of dopachrome in each reaction was monitored with a spectrophotometer. The relative activity was calculated by dividing the absorbance at 475 nm of each reaction mixture by that of the control reaction, in which DMSO replaced the tested compound. All enzymatic reactions described above were carried out at least three times independently, and the average values are presented.

lag time of monophenolase activity (L-tyrosine oxidation) [1]	enzyme inactivation after preincubation [5]	type of inhibition [5]	Michaelis constant KS for L-DOPA ([4]; same experimental conditions)	SMILES	inhibition of monophenolase activity (dopachrome formation) [1]	behaviour as substrate of tyrosinase (HPLC) [2]	molecules required to inactivate 1 molecule of the enzyme (1+r) [3]	partition ratio r [3]	maximal inactivation rate constant ki-max [4]	Ki [4]
without the lag time	totally inactivated	irreversible inhibitors		O=c1c(-c2ccc(O)cc2)coc2c(O)c(O)cc(O)c12 [5,7,8,4′-tetrahydroxyisoflavone]	slowed and stopped the formation of dopachrome	acted as the substrates of mushroom tyrosinase	36.5±3.8 molecules	35.5±3.8	1.01 ± 0.04 L·min	7.81 ± 0.05 µM
without the lag time	totally inactivated	irreversible inhibitors		O=c1c(-c2ccc(O)cc2)coc2c(O)c(O)ccc12 [7,8,4′-trihydroxyisoflavone]	slowed and stopped the formation of dopachrome	acted as the substrates of mushroom tyrosinase	82.7±5.9 molecules	81.7±5.9	0.79 ± 0.08 L·min	18.7 ± 2.31 µM
			0.25 ± 0.01 mM	N[C@@H](Cc1ccc(O)c(O)c1)C(=O)O [L-DOPA, 3,4-dihydroxyphenylalanine, reference compound]						
